Measurements reported in US11957783B2, “Topical immunosensitizers to treat viral and fungal infections” (Squarex, LLC, priority 2018, dated 2024).

Tested on: peripheral blood mononuclear cells (PBMC)
Assay: Cytokine and immune-function gene expression of PBMC in vitro (qRT-PCR, 41 immune-related genes)
Format: cell-based, human
Settings: Group A
Procedure: After a screening visit at which blood was drawn to test for IgG antibody against HSV-1 and subjects were interviewed for inclusion/exclusion criteria, selected subjects returned for blood draws on day 1. After the blood draw on day 1, subjects in group A only were dosed with SADBE. A petrolatum donut was applied with a cotton swab to form about a 1 cm diameter donut on skin on the inner aspect of the upper arm. Then a separate cotton swab was dipped in a 2% SADBE solution (w/v) in DMSO, and the swab was then used to apply about 10-20 mg of solution over about a 1 cm diameter circle within the petrolatum donut. Immediately after application, the application site was covered with TEGADERM. Subjects were advised to remove the TEGADERM and rinse and wipe the spot three hours later. The group A subjects then returned for blood draws on days 15 and 57 and were queried about adverse events on those dates.
PBMC were isolated using SepMate PBMC isolation tubes (Stem Cell Technologies, Vancouver, Canada) and Ficoll-Paque according to the manufacturer's instructions. PBMC were isolated and suspended in negative control medium at 2 million cells/ml. PBMC suspension (100 μL) was added to 100 μL of medium in quadruplicate in 96-well plates. The plates were prepared in advance and stored at −70° C. The wells were in five different conditions in quadruplicate with these final concentrations after addition of the 100 μL of PBMC suspension in negative control medium. • 1. Negative control in medium (RPMI with glutamine and pen/strep, supplemented with 10% human A/B serum). • 2. Medium plus 16 μg/ml protein from heat-inactivated HSV-1-infected Vero cell extracts. • 3. Medium plus heat-inactivated HSV-1 cell-free virus at a final 7.5 million pfu/ml. • 4. Medium plus Candida cell extract. (Greer item number M15A50, 20,000 pnu/ml allergenic extract mixed molds Candida albicans, was diluted 1/50 into medium). • 5. Positive control, medium plus 10 μg/ml concanavalin A.
Two plates were created for each subject at each collection point. One plate was incubated for 2 days at 37° C. in a humidified 5% CO2 atmosphere and then RNA was isolated from the pooled contents of the 4 wells of a given condition for a specific patient, and the RNA was stored at −70° C. and subsequently used for quantitative real time PCR analysis of gene expression of 41 immune-related genes.
As noted above, after 2 days of growth of the PBMC in a 37° C. humidified 5% CO2 incubator in a 96-well plate, four wells of a single condition (negative control, positive control, heat-inactivated HSV-1, HSV-1-infected cell extracts, or Candida extract) with cells from a single subject (200 μL in each well) were pooled, and the RNA was immediately isolated with Trizol reagent and chloroform by Qiagen RNeasy MiniElute clean up kit Qiagen cat #74204, according to manufacturer's instructions into a final volume of 13 μL, and then flash frozen on powdered dry ice, and stored at −70° C. in aliquots of 3 μL for RNA quantification and 10 μL for PCR analysis.
RNA was preamplified with the Qiagen RT2 PreAMP cDNA synthesis kit (Ref. 330451) and custom RT2 PreAmp primer mix (Ref. 330141) starting with about 50 ng RNA according to the procedure of RT preamp cDNA synthesis handbook date March 2011, pages 17-20. The amplification reactions (final 120 μL) were frozen at −70° C. and used for qPCR analysis the next day.
qPCR was done with the Qiagen RT PCR profiler gene analysis kit (catalog number 330451) using RT2 Sybr Green Rox qPCR Mastermix (24) (Part 330523) and Custom RT2 PCR array plates (Ref. 330171). For this 675 μL 2×RT2 SYBR green mastermix, 51 μL pre-AMP synthesis reaction, and 623 μL RNase free water were mixed, and then 25 μL of the mixture was added to 48 wells on the left or right half of the custom PCR plate. The PCR instrument was Applied Biosystems 7900HT fast real time PCR. […]

## CCCCOc1c(OCCCC)c(=O)c1=O [SADBE, 3,4-Dibutoxy-3-cyclobutene-1,2-dione]
HSV-infected cell extracts
  IFNB1 ratio of PBMC absolute gene expression day 57/day 1: 0.65
  IFNG ratio of PBMC absolute gene expression day 15/day 1: 1.26
  IFNG ratio of PBMC absolute gene expression day 57/day 1: 5.72
  IL1B ratio of PBMC absolute gene expression day 15/day 1: 1.48
  IL1B ratio of PBMC absolute gene expression day 57/day 1: 21.45
  IL1R1 ratio of PBMC absolute gene expression day 15/day 1: 0.89
  IL1R1 ratio of PBMC absolute gene expression day 57/day 1: 1.11
  IL1RN ratio of PBMC absolute gene expression day 15/day 1: 0.94
  IL1RN ratio of PBMC absolute gene expression day 57/day 1: 0.79
  IL2 ratio of PBMC absolute gene expression day 15/day 1: 0.98
  IL2 ratio of PBMC absolute gene expression day 57/day 1: 2.48
  IL4 ratio of PBMC absolute gene expression day 15/day 1: 0.77
  IL4 ratio of PBMC absolute gene expression day 57/day 1: 0.89
  IL5 ratio of PBMC absolute gene expression day 15/day 1: 0.83
  IL5 ratio of PBMC absolute gene expression day 57/day 1: 0.50
  IL8 ratio of PBMC absolute gene expression day 15/day 1: 0.99
  IL8 ratio of PBMC absolute gene expression day 57/day 1: 3.86
  IL10 ratio of PBMC absolute gene expression day 15/day 1: 1.19
  IL10 ratio of PBMC absolute gene expression day 57/day 1: 3.29
  IL12A ratio of PBMC absolute gene expression day 15/day 1: 0.90
  IL12A ratio of PBMC absolute gene expression day 57/day 1: 0.89
  IL12B ratio of PBMC absolute gene expression day 15/day 1: 0.80
  IL12B ratio of PBMC absolute gene expression day 57/day 1: 0.23
  IL13 ratio of PBMC absolute gene expression day 15/day 1: 1.01
  IL13 ratio of PBMC absolute gene expression day 57/day 1: 2.28
  IL15 ratio of PBMC absolute gene expression day 15/day 1: 0.93
  IL15 ratio of PBMC absolute gene expression day 57/day 1: 0.87
  IL16 ratio of PBMC absolute gene expression day 15/day 1: 1.03
  IL16 ratio of PBMC absolute gene expression day 57/day 1: 1.02
  JAK2 ratio of PBMC absolute gene expression day 15/day 1: 0.86
  JAK2 ratio of PBMC absolute gene expression day 57/day 1: 0.82
  LTA ratio of PBMC absolute gene expression day 15/day 1: 1.03
  LTA ratio of PBMC absolute gene expression day 57/day 1: 0.99
  LYZ ratio of PBMC absolute gene expression day 15/day 1: 0.73
  LYZ ratio of PBMC absolute gene expression day 57/day 1: 0.29
  MX1 ratio of PBMC absolute gene expression day 15/day 1: 0.89
  MX1 ratio of PBMC absolute gene expression day 57/day 1: 0.66
  NOD1 ratio of PBMC absolute gene expression day 15/day 1: 1.04
  NOD1 ratio of PBMC absolute gene expression day 57/day 1: 0.89
  SPP1 ratio of PBMC absolute gene expression day 15/day 1: 2.09
  SPP1 ratio of PBMC absolute gene expression day 57/day 1: 5.38
  STAT1 ratio of PBMC absolute gene expression day 15/day 1: 0.90
  STAT1 ratio of PBMC absolute gene expression day 57/day 1: 0.91
  STAT4 ratio of PBMC absolute gene expression day 15/day 1: 0.89
  STAT4 ratio of PBMC absolute gene expression day 57/day 1: 1.01
  TNF ratio of PBMC absolute gene expression day 15/day 1: 1.17
  TNF ratio of PBMC absolute gene expression day 57/day 1: 1.2
  TNFSF10 ratio of PBMC absolute gene expression day 15/day 1: 0.84
  TNFSF10 ratio of PBMC absolute gene expression day 57/day 1: 0.88
  TNFSF13B ratio of PBMC absolute gene expression day 15/day 1: 0.93
  TNFSF13B ratio of PBMC absolute gene expression day 57/day 1: 1.07
Neg. control
  CCL2 ratio of PBMC absolute gene expression day 15/day 1: 0.35
  CCL2 ratio of PBMC absolute gene expression day 57/day 1: 1.15
  CCL3 ratio of PBMC absolute gene expression day 15/day 1: 0.47
  CCL3 ratio of PBMC absolute gene expression day 57/day 1: 1.79
  CCL7 ratio of PBMC absolute gene expression day 15/day 1: 0.25
  CCL7 ratio of PBMC absolute gene expression day 57/day 1: 1.35
  CCR5 ratio of PBMC absolute gene expression day 15/day 1: 1.00
  CCR5 ratio of PBMC absolute gene expression day 57/day 1: 1.19
  CD80 ratio of PBMC absolute gene expression day 15/day 1: 0.66
  CD80 ratio of PBMC absolute gene expression day 57/day 1: 1.16
  CXCL2 ratio of PBMC absolute gene expression day 15/day 1: 0.51
  CXCL2 ratio of PBMC absolute gene expression day 57/day 1: 1.33
  CXCL5 ratio of PBMC absolute gene expression day 15/day 1: 0.36
  CXCL5 ratio of PBMC absolute gene expression day 57/day 1: 1.78
  CXCL9 ratio of PBMC absolute gene expression day 15/day 1: 2.50
  CXCL9 ratio of PBMC absolute gene expression day 57/day 1: 4.93
  CXCL10 ratio of PBMC absolute gene expression day 15/day 1: 0.94
  CXCL10 ratio of PBMC absolute gene expression day 57/day 1: 0.68
  CXCL11 ratio of PBMC absolute gene expression day 15/day 1: 0.62
  CXCL11 ratio of PBMC absolute gene expression day 57/day 1: 0.83
  DDX58 ratio of PBMC absolute gene expression day 15/day 1: 0.82
  DDX58 ratio of PBMC absolute gene expression day 57/day 1: 0.83
  FOXP3 ratio of PBMC absolute gene expression day 15/day 1: 0.95
  FOXP3 ratio of PBMC absolute gene expression day 57/day 1: 1.07
  GATA3 ratio of PBMC absolute gene expression day 15/day 1: 1.06
  GATA3 ratio of PBMC absolute gene expression day 57/day 1: 0.84
  ICAM1 ratio of PBMC absolute gene expression day 15/day 1: 1.10
  ICAM1 ratio of PBMC absolute gene expression day 57/day 1: 1.34
  IFNA1 ratio of PBMC absolute gene expression day 15/day 1: 1.20
  IFNA1 ratio of PBMC absolute gene expression day 57/day 1: 1.47
  IFNB1 ratio of PBMC absolute gene expression day 15/day 1: 0.99
  IFNB1 ratio of PBMC absolute gene expression day 57/day 1: 0.73
  IFNG ratio of PBMC absolute gene expression day 15/day 1: 1.05
  IFNG ratio of PBMC absolute gene expression day 57/day 1: 1.24
  IL1B ratio of PBMC absolute gene expression day 15/day 1: 0.16
  IL1B ratio of PBMC absolute gene expression day 57/day 1: 2.09
  IL1R1 ratio of PBMC absolute gene expression day 15/day 1: 1.00
  IL1R1 ratio of PBMC absolute gene expression day 57/day 1: 0.6
  IL1RN ratio of PBMC absolute gene expression day 15/day 1: 0.90
  IL1RN ratio of PBMC absolute gene expression day 57/day 1: 1.35
  IL2 ratio of PBMC absolute gene expression day 15/day 1: 0.80
  IL2 ratio of PBMC absolute gene expression day 57/day 1: 1.21
  IL4 ratio of PBMC absolute gene expression day 15/day 1: 0.86
  IL4 ratio of PBMC absolute gene expression day 57/day 1: 0.98
  IL5 ratio of PBMC absolute gene expression day 15/day 1: 0.99
  IL5 ratio of PBMC absolute gene expression day 57/day 1: 0.39
  IL8 ratio of PBMC absolute gene expression day 15/day 1: 0.62
  IL8 ratio of PBMC absolute gene expression day 57/day 1: 2.38
  IL10 ratio of PBMC absolute gene expression day 15/day 1: 0.90
  IL10 ratio of PBMC absolute gene expression day 57/day 1: 1.04
  IL12A ratio of PBMC absolute gene expression day 15/day 1: 0.84
  IL12A ratio of PBMC absolute gene expression day 57/day 1: 0.98
  IL12B ratio of PBMC absolute gene expression day 15/day 1: 0.40
  IL12B ratio of PBMC absolute gene expression day 57/day 1: 1.38
  IL13 ratio of PBMC absolute gene expression day 15/day 1: 0.88
  IL13 ratio of PBMC absolute gene expression day 57/day 1: 1.69
  IL15 ratio of PBMC absolute gene expression day 15/day 1: 0.95
  IL15 ratio of PBMC absolute gene expression day 57/day 1: 1.13
  IL16 ratio of PBMC absolute gene expression day 15/day 1: 1.06
  IL16 ratio of PBMC absolute gene expression day 57/day 1: 0.89
  JAK2 ratio of PBMC absolute gene expression day 15/day 1: 0.91
  JAK2 ratio of PBMC absolute gene expression day 57/day 1: 0.93
  LTA ratio of PBMC absolute gene expression day 15/day 1: 0.94
